According to patent US20060134095A1, “Antioxidative composition and composition for external use” (priority 2003, published 2006):

Tests used:
[1] = hydroxy radical scavenging activity by ESR spin trapping (H2O2/FeSO4, DMPO); conditions: for Remaining amount of hydroxyl radicals: relative signal intensity (DMPO-OH/MnO); for hydroxyl radical scavenging activity (in words) / hydroxyl radical scavenging activity compared with pro-vitamin C (A2P: ascorbic acid-2-phosphate Na): ESR spin trapping, Table 2
Method: (1) With regard to the foregoing samples, according to the direction in the following Table 1, the sample was put into a 1.5 ml Eppendorf tube, H2O2 was added, and reaction was carried out for 30 seconds after the addition for H2O2. Subsequently, the measurement was carried out by ESR, and the hydroxy radical scavenging activities of the fullerenes measured by the ESR spin trapping method were evaluated.
For preparation of the reagents, milli Q was used. As for the ESR apparatus, JES-FR30 (JEOL Co.) was used, and measurement was carried out using a high sensitive ESR water-soluble flat cell (LABOTEC Co.). The measurement conditions of ESR were as follows. Power: 4 mW, Field: 336±5, Sweep Time: 1 min., Modulation Width: 0.32 mT, Amp: 400, Response Time: 0.3 sec. Evaluation was performed with the ratio of the signal amplitude of OH to that of the paramagnetic internal standard, MnO.

[2] = superoxide scavenging activity by ESR spin trapping (hypoxanthine/xanthine oxidase, DMPO)
Method: (2) In addition, according to the direction in the following Table 3, each of the samples was put into a 1.5 ml Eppendorf tube, XOD was added, and reaction was carried out for 30 seconds. Subsequently, the measurement was carried out by ESR, whereby the superoxide scavenging activities measured by ESR spin trapping were evaluated. The measuring method was according to the case of the hydroxyl radical.
The measurement conditions of ESR were as follows. Power: 4 mW, Field: 336±5, Sweep Time: 1 min., Modulation Width: 0.1 mT, Amp: 790, Response Time: 0.3 sec. Evaluation was performed with the ratio of the signal amplitude of O2 to that of the paramagnetic internal standard, MnO.

[3] = tested on: human skin epidermal keratinocytes; assay: antioxidative effect against UVB in keratinocytes (CDCFH-DA fluorescence, intracellular peroxide/hydrogen peroxide); assay type: cell-based; conditions: UVB 40 mJ/cm^2, samples added before irradiation, FIG. 1
Method: (3) With regard to various samples, their antioxidative effects against UVB were evaluated by using keratinocytes, a human major cell type.
The results are shown in Pig. 1.

| Remaining amount of hydroxyl radicals ([1]; sample 9.26 μM, solubilized in 70% ethanol, diluted to 0.2%, control 3.0) | Compound | Remaining amount of hydroxyl radicals ([1]; ethanol, concentration not given, control (Milli-Q water) 3.0) | Remaining amount of superoxide anion radical ([2]; relative signal intensity (DMPO-OOH/MnO), ethanol, concentration not given, control (Milli-Q water) 3.0) | hydroxyl radical scavenging activity (in words) [1] | hydroxyl radical scavenging activity compared with pro-vitamin C (A2P: ascorbic acid-2-phosphate Na) [1] | radical scavenging activity in the superoxide test (in words; printed as hydroxyl radical scavenging activities) ([2]; ESR spin trapping, Table 4) | superoxide anion radical scavenging activity compared with pro-vitamin C (A2P) ([2]; ESR spin trapping, Table 4) | peroxide/hydrogen peroxide scavenging activity in skin cells (antioxidative effect) compared with pro-vitamin C (Asc2P-Na) [3] |
| --- | --- | --- | --- | --- | --- | --- | --- | --- |
|  | CCO [Ethanol, reference compound] | 1.3 | 7.5 |  |  |  |  |  |
|  | Fullerene modified with PEG [Sample F3] |  |  | significant | slightly superior to or equal to | significant | significantly superior |  |
| 0.6 | Hydroxylated fullerene [Sample F6] |  |  | significant | slightly superior to or equal to |  | equal to or more than | equal |
